Assay results reported in the NIST ThermoML archive (doi:10.1021/acs.jced.8b01189).
± gives the expanded uncertainty stated by the source. Blank lines part the entries; values can stand above or below the compound they belong to.

Columns and labels:
[1] = xn = mol fraction of the nth substance listed; settings: 298.15 K, 100 kPa, Liquid, Vibrating tube method
[2] = 298.15 K; 100 kPa; Liquid; Vibrating tube method

SMILES: CCCCCCCO [heptan-1-ol]
mass density [2]: 818.7 ± 1 kg/m3

SMILES: CCCCCCCCCO [nonan-1-ol]
mass density [2]: 824 ± 1 kg/m3

SMILES: CCCCCCCCCCO [decan-1-ol] + CCCCC(=O)O
mass density ([1]; x2 = 0): 826.1 ± 1 kg/m3

SMILES: CCCCCCO [hexan-1-ol] + CCCCC(=O)O
mass density ([1]; x2 = 0): 815.1 ± 1 kg/m3

SMILES: CCCCCO [pentan-1-ol] + CCCCC(=O)O
mass density ([1]; x2 = 0): 810.8 ± 1 kg/m3

SMILES: CCCCCCCCO [octan-1-ol]
mass density [2]: 821.4 ± 1 kg/m3

SMILES: CCCCCCCCO [octan-1-ol] + CCCCC(=O)O
mass density ([1]; x2 = 0): 821.4 ± 1 kg/m3

SMILES: CCCCCCCO [heptan-1-ol] + CCCCC(=O)O
mass density ([1]; x2 = 0): 818.7 ± 1 kg/m3

SMILES: CCCCCCCCCO [nonan-1-ol] + CCCCC(=O)O
mass density ([1]; x2 = 0): 824 ± 1 kg/m3

SMILES: CCCCCCO [hexan-1-ol]
mass density [2]: 815.1 ± 1 kg/m3

SMILES: CCCCCO [pentan-1-ol]
mass density [2]: 810.8 ± 1 kg/m3

SMILES: CCCCCCCCCCO [decan-1-ol]
mass density [2]: 826.1 ± 1 kg/m3

Other lines, results leading:

mass density ([1]; x1 = 0.0802): 830 ± 1 kg/m3
mass density ([1]; x1 = 0.1604): 836.1 ± 1 kg/m3
mass density ([1]; x1 = 0.2394): 842.8 ± 1 kg/m3
mass density ([1]; x1 = 0.3496): 852.5 ± 1 kg/m3
mass density ([1]; x1 = 0.4397): 861.2 ± 1 kg/m3
mass density ([1]; x1 = 0.5605): 873.9 ± 1 kg/m3
mass density ([1]; x1 = 0.6497): 884.3 ± 1 kg/m3
mass density ([1]; x1 = 0.7401): 895.6 ± 1 kg/m3
mass density ([1]; x1 = 0.8502): 911 ± 1 kg/m3
mass density ([1]; x1 = 0.9403): 925 ± 1.1 kg/m3
mass density ([1]; x1 = 1): 935.1 ± 1 kg/m3
SMILES: CCCCC(=O)O [pentanoic acid] + CCCCCCCCCO

mass density ([1]; x1 = 0.0812): 826.5 ± 1 kg/m3
mass density ([1]; x1 = 0.1601): 834.3 ± 1 kg/m3
mass density ([1]; x1 = 0.24): 842.5 ± 1 kg/m3
mass density ([1]; x1 = 0.3506): 854.2 ± 1 kg/m3
mass density ([1]; x1 = 0.4398): 864 ± 1 kg/m3
mass density ([1]; x1 = 0.5605): 877.8 ± 1 kg/m3
mass density ([1]; x1 = 0.6496): 888.5 ± 1 kg/m3
mass density ([1]; x1 = 0.7405): 899.7 ± 1 kg/m3
mass density ([1]; x1 = 0.8501): 914.1 ± 1 kg/m3
mass density ([1]; x1 = 0.9405): 926.5 ± 1 kg/m3
mass density ([1]; x1 = 1): 935.1 ± 1 kg/m3
SMILES: CCCCC(=O)O [pentanoic acid] + CCCCCCCO

mass density ([1]; x1 = 0.0807): 821.4 ± 1 kg/m3
mass density ([1]; x1 = 0.1596): 831.9 ± 1 kg/m3
mass density ([1]; x1 = 0.2398): 842.4 ± 1 kg/m3
mass density ([1]; x1 = 0.3501): 856.7 ± 1 kg/m3
mass density ([1]; x1 = 0.4401): 868.2 ± 1 kg/m3
mass density ([1]; x1 = 0.5604): 883.1 ± 1 kg/m3
mass density ([1]; x1 = 0.6498): 894 ± 1 kg/m3
mass density ([1]; x1 = 0.7399): 904.7 ± 1 kg/m3
mass density ([1]; x1 = 0.8498): 917.6 ± 1 kg/m3
mass density ([1]; x1 = 0.9396): 928.1 ± 1 kg/m3
mass density ([1]; x1 = 1): 935.1 ± 1 kg/m3
SMILES: CCCCC(=O)O [pentanoic acid] + CCCCCO

mass density ([1]; x1 = 0.0924): 825.4 ± 1 kg/m3
mass density ([1]; x1 = 0.1783): 835.2 ± 1 kg/m3
mass density ([1]; x1 = 0.264): 845.1 ± 1 kg/m3
mass density ([1]; x1 = 0.3796): 858.6 ± 1 kg/m3
mass density ([1]; x1 = 0.4718): 869.5 ± 1 kg/m3
mass density ([1]; x1 = 0.5914): 883.9 ± 1 kg/m3
mass density ([1]; x1 = 0.6785): 894.5 ± 1 kg/m3
mass density ([1]; x1 = 0.7639): 905 ± 1 kg/m3
mass density ([1]; x1 = 0.8656): 917.8 ± 1 kg/m3
mass density ([1]; x1 = 0.9468): 928.2 ± 1 kg/m3
mass density ([1]; x1 = 1): 935.1 ± 1 kg/m3
SMILES: CCCCC(=O)O [pentanoic acid] + CCCCCCO

mass density [2]: 935.1 ± 1 kg/m3
SMILES: CCCCC(=O)O [pentanoic acid]

mass density ([1]; x1 = 0.0809): 831.4 ± 1 kg/m3
mass density ([1]; x1 = 0.1598): 837 ± 1 kg/m3
mass density ([1]; x1 = 0.2406): 843 ± 1 kg/m3
mass density ([1]; x1 = 0.3493): 852 ± 1 kg/m3
mass density ([1]; x1 = 0.4405): 860.2 ± 1 kg/m3
mass density ([1]; x1 = 0.5601): 872.3 ± 1 kg/m3
mass density ([1]; x1 = 0.6502): 882.5 ± 1 kg/m3
mass density ([1]; x1 = 0.7406): 893.9 ± 1 kg/m3
mass density ([1]; x1 = 0.8504): 909.6 ± 1.1 kg/m3
mass density ([1]; x1 = 0.9411): 924.2 ± 1.1 kg/m3
mass density ([1]; x1 = 1): 935.1 ± 1 kg/m3
SMILES: CCCCC(=O)O [pentanoic acid] + CCCCCCCCCCO

mass density ([1]; x1 = 0.0809): 828.2 ± 1 kg/m3
mass density ([1]; x1 = 0.1604): 835.1 ± 1 kg/m3
mass density ([1]; x1 = 0.2392): 842.4 ± 1 kg/m3
mass density ([1]; x1 = 0.3496): 853 ± 1 kg/m3
mass density ([1]; x1 = 0.4399): 862.3 ± 1 kg/m3
mass density ([1]; x1 = 0.5605): 875.5 ± 1 kg/m3
mass density ([1]; x1 = 0.6497): 886.1 ± 1 kg/m3
mass density ([1]; x1 = 0.7401): 897.4 ± 1 kg/m3
mass density ([1]; x1 = 0.8504): 912.4 ± 1 kg/m3
mass density ([1]; x1 = 0.9403): 925.7 ± 1.1 kg/m3
mass density ([1]; x1 = 1): 935.1 ± 1 kg/m3
SMILES: CCCCC(=O)O [pentanoic acid] + CCCCCCCCO
